Results: patent US9522198B2, “Methods and compositions related to targeting tumors and wounds” (Sanford-Burnham Medical Research Institute, priority 2006, dated 2016)
Entries after “also recorded” stand apart in the source; their conditions may differ. Ends that are not written are not given here.

What was measured:
[1] = tested on: human clinical breast cancers; assay: Peptide overlay assay on frozen tumor sections; assay type: binding; conditions: two clinical breast cancers
Description: B16F1 mouse melanoma, Lewis lung carcinoma, C8161 human melanoma, MDA-MB-435 human breast cancer, and PPC-1 human prostate cancer cells (American Type Culture Collection) were maintained in RPMI or DMEM supplemented with 10% FCS. Human tumor cells (1×10^6) were injected into the mammary fat pad or the flank of nude BALB/c nu/nu mice to induce tumors. MMTV PyMT mice were provided by Dr. Robert Oshima (Burnham Institute for Medical Research, La Jolla, Calif.). The MMTV PyMT mice develop breast cancer under the influence of a polyoma middle T antigen driven by the mouse tumor virus promoter (Siegel, P. M., Ryan, E. D., Cardiff, R. D., Muller W. J. (1999) EMBO J., 18, 2149-64). […]
The mice were perfused through the heart 3 hours after the peptide injection and tissues removed for examination. […] Tissue fluorescence was quantified using Image-Pro Plus software. At least two images from representative microscopic fields were analyzed from each tissue sample and data from individual mice that received the same treatment (n=2-8) were pooled.

[2] = target: albumin (Homo sapiens, UniProt P02768); assay: Aggregate formation in albumin solution (turbidity); assay type: biochemical; conditions: added to an albumin solution
Description: CLT1 contains a sequence of three consecutive hydrophobic residues, LII (leucine-isoleucine-isoleucine). This motif is very similar to the VII sequence (V, valine) which causes proteins to form large insoluble aggregates (Esteras-Chopo et al. 2005). […] The ability of CLT1 to aggregate proteins correlates with its cytotoxicity for human umbilical venous endothelial cells (HUVECs).

[3] = tested on: orthotopic MDA-MB-435 xenograft tumors; assay: Tumor homing of i.v. injected fluorescein-conjugated peptides, MDA-MB-435 xenografts; assay type: in vivo, mouse
Description: To determine whether the CLT peptides would recognize clotted plasma proteins in vivo, the peptides were synthesized as fluorescein conjugates and imaged their accumulation in tumors. Mice bearing orthotopic MDA-MB-435 xenograft tumors were intravenously injected with fluorescein-conjugated CLT1 (n=6), CLT2 (n=4), or a control peptide (n=4) with the sequence KAREC (SEQ ID NO: 5).
B16F1 mouse melanoma, Lewis lung carcinoma, C8161 human melanoma, MDA-MB-435 human breast cancer, and PPC-1 human prostate cancer cells (American Type Culture Collection) were maintained in RPMI or DMEM supplemented with 10% FCS. Human tumor cells (1×10^6) were injected into the mammary fat pad or the flank of nude BALB/c nu/nu mice to induce tumors. MMTV PyMT mice were provided by Dr. Robert Oshima (Burnham Institute for Medical Research, La Jolla, Calif.). The MMTV PyMT mice develop breast cancer under the influence of a polyoma middle T antigen driven by the mouse tumor virus promoter (Siegel, P. M., Ryan, E. D., Cardiff, R. D., Muller W. J. (1999) EMBO J., 18, 2149-64). B16F1 tumors induced by injecting 1×10^6 cells subcutaneously were grown in the flank of fibrinogen knock-out mice (Suh, T. T., Holmback, K., Jensen, N. J., Daugherty, C. C., Small, K., Simon, D. I., Potter, S., & Degen, J. L. (1995) Genes Dev. 9, 2020-2033), and of transgenic plasma fibronectin-deficient C57BL/6-Fn(f1/f1) Mx-Cre^+ (Sakai, T., Johnson, K. J., Murozono, M., Sakai, K., Magnuson, M. A., Wieloch, T., Cronberg, T., Isshiki, A., Erickson, H. P., & Fassler R. (2001) Nat. Med. 7, 324-30) and their wild type littermates. Deletion of the fibronectin gene in the liver was induced by poly(I):poly(C) (Yi, M., Sakai, T., Fassler, R., & Ruoslahti, E. (2003) Proc. Natl. Acad. Sci. USA. 100, 11435-11438). Frozen human tissues from clinical breast cancers were provided by the Western Division of the NCI Cooperative Human Tissue Network (Vanderbilt University Medical Center, Nashville, Tenn.).
Peptides were synthesized and conjugated to fluorescein isothiocyanate as described (Laakonen et al. PNAS 2004), and cyclized by exposure to air.
Imaging under a blue light, and examination of the distribution of fluorescein-conjugated peptides after tail vein injection have been described (Hoffman, R. M. (2005) Nature Reviews Cancer 5, 796-806; Laakkonen, P., Akerman, M. E., Biliran, H., Yang, M., Ferrer, F., Karpanen, T., Hoffman, R. M., & Ruoslahti E. (2004) Proc. Natl. Acad. Sci. USA 101, 9381-6).
The imaging methods are briefly described as follows: A Leica fluorescence stereomicroscope, model LZ12, equipped with a 50-W mercury lamp, was used for high-magnification imaging. Selective excitation of GFP was produced through a D425y60 band-pass filter and 470 DCXR dichroic mirror. Emitted fluorescence was collected through a long-pass filter GG475 (Chroma Technology, Brattleboro, Vt.) on a Hamamatsu C5810 3-chip cooled color charge-coupled device camera (Hamamatsu Photonics Systems, Bridgewater, N.J.). Images were processed for contrast and brightness and analyzed with the use of IMAGE PRO PLUS 3.1 software (Media Cybernetics, Silver Springs, Md.). Images of 1,024×724 pixels were captured directly on an IBM PC or continuously through video output on a high-resolution Sony VCR model SLV-R1000 (Sony, Tokyo). Imaging at lower magnification that visualized the entire animal was carried out in a light box illuminated by blue light fiber optics (Lightools Research, Encinitas, Calif.) and imaged by using the thermoelectrically cooled color charge-coupled device camera, as described above (Yang, M., Baranov, E., Jiang, P., Sun, F-X., Li, X-M., Li, L., Hasegawa, S., Bouvet, M., Al-Tuwaijri, M., Chishima, T., et al (2000) Proc. Natl. Acad. Sci. USA 97, 1206-11).
The mice were perfused through the heart 3 hours after the peptide injection and tissues removed for examination. […]

[4] = 500 μg fluorescein-conjugated peptide i.v., 3 h

CGLIIQKNEC (also: cyclic, ring type not given here, fluorescein conjugate, site not given here) [CLT1, cyclic decapeptide from phage library screened on plasma clots; tested as fluorescein conjugate]
overlay binding [1]: positive
aggregate formation in albumin solution [2]: not amyloidogenic
fluorescence in control / healthy organs [3, 4]: not in control organs
fluorescence in tumors, whole tissues under blue light [3, 4]: intense fluorescence; also recorded: strong fluorescence
histological distribution of peptide fluorescence within the tumor ([3]; fluorescein-conjugated peptide i.v., 3 h, 400×): distributed in a network pattern
tumor homing / fluorescence on co-injection with unlabeled CLT2 ([3]; unlabeled CLT2 in 5 fold excess): strongly reduced
